In patent publication EP0652769B1, “VACCINES AGAINST METAZOAN PARASITES” (MALLINCKRODT VETERINARY, INC., priority 1992, dated 1994):
Where “and” joins values, the source holds several entries; their conditions need not be identical. Equal entries are not always repeated. Square brackets hold non-standard residues; d marks the D form. Peptide text beside a SMILES is read from it. * marks the point of attachment. Sta = CC(C)C[C@H](N)[C@@H](O)CC(=O)O; Isovaleryl = CC(C)CC(=O)*

How the values were obtained:
[1] = test system: H-gal-GP; experiment: Azocasein proteolysis by H-gal-GP at pH 7 with a panel of proteinase inhibitors (neutral endopeptidase-like activity); format: biochemical, H.contortus; settings: inhibitor 1mM, overnight at 37°C
Method: Proteinase activity was determined using azocasein as substrate in a microassay system. H-gal-GP (approximately 5ug in 20µl) was preincubated for 3Omin at 37°C with 2OOµl sterile 0.1M phosphate buffer, pH 7.0 containing no inhibitor (control), or inhibitor to a final concentration of 1mM. Inhibitors used were prepared as 100mM stock solutions in water except for 4-hydroxymercuribenzoate (4HMB) and pepstatin which were dissolved in methanol. Inhibitors tested were dithiothreitol (DTT); L-cysteine; reduced glutathione; 4HMB; N-ethylmaleimide; EDTA; 1,10 phenanthroline and pepstatin and were all purchased from Sigma. After preincubation 20µl azocasein (5mg/ml in sterile distilled water; Sigma) was added and the reaction mixtures incubated overnight at 37°C. Parallel blanks containing sterile water instead of H-gal-GP were included for each inhibitor tested and assays were performed in duplicate. The reactions were stopped by addition of an equal volume of 1M perchloric acid (BDH chemicals) and retained on ice for 15min to precipitate undigested protein which was subsequently pelleted by brief centrifugation at 11000g using a microfuge. The 0D₄₀₅ of the supernatant was determined using a "Monarch" microcentrifugal analyser (Instrumentation Laboratory, Warrington, UK). After subtraction of the appropriate reagent blank the degree of inhibition was expressed as the percent activity remaining compared to the control reaction.

[2] = test system: H-gal-GP; experiment: Inhibitor sensitivity of protease activity; format: biochemical, H. contortus; settings: peanut lectin purified H-gal-GP; means of 4 separate observations
Method: The optimum pH for this activity was determined over the pH range 4 to 9 using overlapping 0.1M acetate, phosphate or Tris buffers (Fig. 8). Optimal activity was found between pH 4.5 and 6.5. ii) Inhibitor sensitivity The inhibitor sensitivity of the proteinase activity was tested with 4 separate preparations of peanut lectin purified H-gal-GP. […]

[3] = test system: Oo-gal-GP; experiment: Inhibitor sensitivity of protease activity; format: biochemical, O.ostertagi; settings: means of 2 observations
[4] = test system: Oc-gal-GP; experiment: Inhibitor sensitivity of protease activity; format: biochemical, O.circumcincta; settings: means of 2 observations
[5] = test system: extracts of adult T.vitrinus; experiment: Proteolytic activity of worm extracts in the presence of pepstatin; format: biochemical
Text: Proteolytic activity in extracts of adult T.vitrinus was reduced by 40% in the presence of pepstatin. […] These observations indicate that T.vitrinus also contains aspartyl proteinase activity similar to Haemonchus and Ostertagia spp.

[6] = molecular target: Haemonchus galactose-containing glycoprotein complex (H-gal-GP) (Haemonchus contortus); experiment: cell-based or functional assay
[7] = molecular target: Ostertagia ostertagi galactose-containing glycoprotein complex (Oo-gal-GP) (Ostertagia ostertagi); experiment: cell-based or functional assay
[8] = molecular target: Ostertagia circumcincta galactose containing glycoprotein complex (Oc-gal-GP) (Ostertagia circumcincta); experiment: cell-based or functional assay
[9] = first analysis, 0.1M phosphate buffer
[10] = second analysis, same batch of H-gal-GP

Compound | % activity remaining [1, 9] | % activity remaining [1, 10] | percent activity remaining in the presence of inhibitor [2] | percent activity remaining in the presence of inhibitor [3] | percent activity remaining in the presence of inhibitor [4] | further results
O[C@H](CS)[C@H](O)CS (racemic) [Dithiothreitol, dithiothreitol] | 48% | 44% |  |  |  | 
c1cnc2c(c1)ccc1cccnc12 [1, 10 Phenanthroline, 1,10 phenanthroline] | 26% | 23% | 97% | 99% | 94% | 
O=C([O-])c1cc[c]([Hg][OH])cc1 [4-hydroxymercuribenzoate] | 88% | 91% |  |  |  | 
N[C@@H](CS)C(=O)O [Cysteine, L-cysteine] |  | 0% |  |  |  | 
CC(C)C[C@H](NC(=O)[C@H]1O[C@@H]1C(=O)O)C(=O)NCCCCN=C(N)N [E64] |  |  | 87.8% | 101% | 101% | 
O=C(O)CN(CCN(CC(=O)O)CC(=O)O)CC(=O)O [EDTA] | 25% | 10% | 97.8% |  |  | 
N[C@@H](CCC(=O)N[C@@H](CS)C(=O)NCC(=O)O)C(=O)O [Glutathione, reduced glutathione] | 87% | 85% |  |  |  | 
CCN1C(=O)C=CC1=O [N-ethylmaleimide] | 74% | 77% |  |  |  | 
O=S(=O)(F)Cc1ccccc1 [PMSF] |  |  | 100% | 84% | 104% | 
CC(C)CC(=O)N[C@H](C(=O)N[C@H](C(=O)N[C@@H](CC(C)C)[C@@H](O)CC(=O)N[C@@H](C)C(=O)N[C@@H](CC(C)C)[C@@H](O)CC(=O)O)C(C)C)C(C)C [Pepstatin, pepstatin] (Isovaleryl-VV[Sta]A[Sta]-OH) | 75% | 85% | 8.5% | 0% | 23% | Proteolytic activity reduced [5]: 40%
Serum of control lamb (injected with adjuvant only) (antibody) |  |  |  |  |  | % Inhibition of Proteolysis (Assay 1) [6]: 0%; % Inhibition of Proteolysis (Assay 2) [6]: 2%
pepstatin (peptide) |  |  |  |  |  | percent activity remaining in the presence of inhibitor [7]: 0%; percent activity remaining in the presence of inhibitor [8]: 23%; % activity remaining (azocasein proteolysis at pH7) [6]: 75% and 85%; percent activity remaining in the presence of inhibitor [6]: 8.5%
